This is an account of results in ChEMBL document CHEMBL3414438, “5'-C-Ethyl-tetrazolyl-N(6)-substituted adenosine and 2-chloro-adenosine derivatives as highly potent dual acting A1 adenosine receptor agonists and A3 adenosine receptor antagonists” (J Med Chem, 2015).

Molecules are shown by their SMILES. The source made the active and inactive calls. The calls are words filed in the database; no cut-off is given here. Bounds are passed on as bounds.

The target in assay [1] is T1, Adenosine receptor A2a (Homo sapiens, UniProt P29274). Nature of the assay: Agonist activity at human recombinant adenosine A2A receptor transfected in CHO cells assessed as induction of adenylyl cyclase activity. In kind it is functional, cell-based.
For assay [2], the target named is T1, Adenosine receptor A2a. Nature of the assay: Displacement of [3H]-NECA from human recombinant adenosine A2A receptor transfected in CHO cells. In kind it is cell-based.
In assay [3] the target is T2, Adenosine receptor A3 (Homo sapiens, UniProt P0DMS8).
T2 sequence (P0DMS8 whole entry): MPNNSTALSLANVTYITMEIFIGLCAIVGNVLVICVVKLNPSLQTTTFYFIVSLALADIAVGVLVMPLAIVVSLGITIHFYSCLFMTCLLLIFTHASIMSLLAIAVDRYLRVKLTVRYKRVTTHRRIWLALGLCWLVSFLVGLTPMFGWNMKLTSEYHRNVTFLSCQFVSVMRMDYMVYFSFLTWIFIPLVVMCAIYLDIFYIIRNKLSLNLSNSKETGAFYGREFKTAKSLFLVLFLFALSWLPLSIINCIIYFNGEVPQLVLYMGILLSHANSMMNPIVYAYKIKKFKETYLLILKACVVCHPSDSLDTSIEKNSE
Nature of the assay: Antagonist activity at human recombinant adenosine A3 receptor transfected in CHO cells assessed as reversal of NECA-induced inhibition of forskolin-induced adenylyl cyclase activity. In kind it is functional, cell-based.

The target in assay [4] is T2, Adenosine receptor A3. Nature of the assay: Displacement of [3H]-HEMADO from human recombinant adenosine A3 receptor transfected in CHO cells. It is filed as cell-based.
The target in assay [5] is T3, Adenosine receptor A1 (Homo sapiens, UniProt P30542).
T3 sequence (P30542 whole entry): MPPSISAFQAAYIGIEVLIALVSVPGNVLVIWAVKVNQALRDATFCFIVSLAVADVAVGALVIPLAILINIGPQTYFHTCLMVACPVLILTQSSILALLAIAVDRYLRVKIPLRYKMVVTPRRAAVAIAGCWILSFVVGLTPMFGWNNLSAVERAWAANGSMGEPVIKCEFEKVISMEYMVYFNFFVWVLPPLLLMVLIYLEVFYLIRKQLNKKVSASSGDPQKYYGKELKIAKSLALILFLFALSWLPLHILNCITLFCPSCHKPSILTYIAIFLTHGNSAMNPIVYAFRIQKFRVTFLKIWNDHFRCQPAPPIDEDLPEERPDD
Nature of the assay: (§1) Agonist activity at human recombinant adenosine A1 receptor transfected in CHO cells assessed as inhibition of forskolin-induced adenylyl cyclase activity. In kind it is functional, cell-based.

Assay [6] addresses T4, Adenosine receptor A1 (Homo sapiens) (UniProt P30542).
T4 sequence (whole entry): T3 sequence (P30542 whole entry)
The assay is described as §1. In kind it is functional, cell-based.

Assay [7] concerns the target T3, Adenosine receptor A1. Nature of the assay: Displacement of [3H]-CCPA from human recombinant adenosine A1 receptor transfected in CHO cells. It is filed as cell-based.
The target in assay [8] is T5, Adenosine receptor A2b (Homo sapiens) (UniProt P29275).
T5 sequence (whole entry): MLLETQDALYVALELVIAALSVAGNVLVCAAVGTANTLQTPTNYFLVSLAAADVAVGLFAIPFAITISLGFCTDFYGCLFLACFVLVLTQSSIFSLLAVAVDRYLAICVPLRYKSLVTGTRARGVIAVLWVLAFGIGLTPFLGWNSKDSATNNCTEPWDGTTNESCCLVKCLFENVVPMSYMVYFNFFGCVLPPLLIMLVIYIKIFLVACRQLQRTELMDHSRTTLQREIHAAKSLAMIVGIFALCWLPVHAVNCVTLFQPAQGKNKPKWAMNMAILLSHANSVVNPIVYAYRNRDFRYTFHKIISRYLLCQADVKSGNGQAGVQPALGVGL
Nature of the assay: (§2) Agonist activity at human recombinant adenosine A2B receptor transfected in CHO cells assessed as induction of adenylyl cyclase activity. In kind it is functional, cell-based.

The target of another assay is T6, Adenosine receptor A2b (Homo sapiens, UniProt P29275).
T6 sequence (P29275 whole entry): T5 sequence (whole entry)
The assay is described as §2. In kind it is functional, cell-based.

The species named for assay [9] is Homo sapiens. Nature of the assay: Selectivity ratio of Ki for human recombinant adenosine A2A receptor to Ki for human recombinant adenosine A1 receptor.
The species named for assay [10] is Homo sapiens. Nature of the assay: Selectivity ratio of Ki for human recombinant adenosine A2A receptor to Ki for human recombinant adenosine A3 receptor.
For assay [11], the target named is T5, Adenosine receptor A2b (Homo sapiens). Nature of the assay: Partial agonist activity at human recombinant adenosine A2B receptor transfected in CHO cells assessed as induction of adenylyl cyclase activity relative to NECA. In kind it is functional, cell-based.

T1 sequence (P29274 whole entry): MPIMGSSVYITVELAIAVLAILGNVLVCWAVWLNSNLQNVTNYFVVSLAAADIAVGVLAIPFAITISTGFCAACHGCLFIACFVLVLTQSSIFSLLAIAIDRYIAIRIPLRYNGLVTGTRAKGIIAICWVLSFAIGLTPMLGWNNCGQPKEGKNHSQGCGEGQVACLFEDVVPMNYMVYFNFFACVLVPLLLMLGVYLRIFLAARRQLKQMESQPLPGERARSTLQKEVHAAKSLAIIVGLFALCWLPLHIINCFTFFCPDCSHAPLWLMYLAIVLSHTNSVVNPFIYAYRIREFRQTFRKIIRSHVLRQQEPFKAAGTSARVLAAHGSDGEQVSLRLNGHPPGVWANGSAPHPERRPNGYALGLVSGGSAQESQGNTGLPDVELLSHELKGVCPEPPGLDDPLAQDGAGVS

On to `CCn1nnc([C@H]2O[C@@H](n3cnc4c(N[C@H]5C[C@@H]6CC[C@@H]5C6)ncnc43)[C@H](O)[C@@H]2O)n1` (racemic), for which the EC50 at Adenosine receptor A2a [1] is 7.71 nM; at Adenosine receptor A3 [3], 83.9 nM; on Adenosine receptor A1 [5], 4.66 nM; at Adenosine receptor A2b it was 1010 nM. Moreover, the Efficacy (on Adenosine receptor A2a [1]; in [6]; in assay [8]) was greater than 90% each time. For the same compound, the figures for the Ki at Adenosine receptor A2a [2], at Adenosine receptor A3 [4] and on Adenosine receptor A1 [7] were 64.5 nM, 8.85 nM and 0.453 nM, respectively.

As for `CCn1nnc([C@H]2O[C@@H](n3cnc4c(N)nc(Cl)nc43)[C@H](O)[C@@H]2O)n1`, the EC50 was determined as 3.84 nM on Adenosine receptor A2a [1], 31.7 nM at Adenosine receptor A3 [3], 19.8 nM on Adenosine receptor A1 [5] and 542 nM at Adenosine receptor A2b. In addition, the Efficacy (on Adenosine receptor A2a [1]; in assay [6]; in assay [8]) was greater than 90% in each case. In addition, the inhibition constant Ki came to 20.7 nM on Adenosine receptor A2a [2], 1.8 nM on Adenosine receptor A3 [4] and 0.966 nM on Adenosine receptor A1 [7].

For `CCn1nnc([C@H]2O[C@@H](n3cnc4c(NC5CCCO5)nc(Cl)nc43)[C@H](O)[C@@H]2O)n1` (stereo partly specified), the EC50 on Adenosine receptor A2a [1] came to 33.2 nM; on Adenosine receptor A3 [3], 104 nM; on Adenosine receptor A1 [5] it was 7.42 nM; on Adenosine receptor A2b, 3150 nM. Also, the Efficacy (on Adenosine receptor A2a [1]; in [6]; in assay [8]) was greater than 90% each time. In addition, the values for the Ki on Adenosine receptor A2a [2], on Adenosine receptor A3 [4] and on Adenosine receptor A1 [7] were 870 nM, 9.62 nM and 1.06 nM, respectively.

Consider `CCn1nnc([C@H]2O[C@@H](n3cnc4c(Nc5ccc(Cl)cc5F)nc(Cl)nc43)[C@H](O)[C@@H]2O)n1`, for which the EC50 on Adenosine receptor A2a [1] amounted to 28.8 nM; at Adenosine receptor A3 [3] it was 37 nM; on Adenosine receptor A1 [5] it was 64.8 nM. The Efficacy (at Adenosine receptor A2a [1]; in assay [6]; in assay [8]) was greater than 90% each time. The Ki at Adenosine receptor A2a [2] amounted to 223 nM; on Adenosine receptor A3 [4], 4.71 nM; at Adenosine receptor A1 [7], 1.67 nM.

In the case of `CCn1nnc([C@H]2O[C@@H](n3cnc4c(NC)ncnc43)[C@H](O)[C@@H]2O)n1`, the EC50 on Adenosine receptor A2a [1] is 1710 nM; at Adenosine receptor A3 [3] it was 6.38 nM; on Adenosine receptor A1 [5], 97.2 nM; at Adenosine receptor A2b it was 1480 nM. In addition, the Efficacy (at Adenosine receptor A2a [1]; in [6]; in assay [8]) was greater than 90% each time. Further, the Ki amounted to 778 nM at Adenosine receptor A2a [2], 0.478 nM on Adenosine receptor A3 [4] and 3.56 nM on Adenosine receptor A1 [7].

As to `CCn1nnc([C@H]2O[C@@H](n3cnc4c(Nc5ccc(Cl)cc5F)ncnc43)[C@H](O)[C@@H]2O)n1`, the EC50 was determined as 8.4 nM at Adenosine receptor A2a [1], 33.9 nM on Adenosine receptor A3 [3], 10.2 nM at Adenosine receptor A1 [5] and 530 nM at Adenosine receptor A2b. Further, the Efficacy (at Adenosine receptor A2a [1]; in assay [6]; in [8]) was greater than 90% each time. The Ki at Adenosine receptor A2a [2] was found to be 77.5 nM; on Adenosine receptor A3 [4], 2.61 nM; on Adenosine receptor A1 [7], 0.432 nM.

For the compound `CCn1nnc([C@H]2O[C@@H](n3cnc4c(NC)nc(Cl)nc43)[C@H](O)[C@@H]2O)n1`, the EC50 on Adenosine receptor A2a [1] is 238 nM; at Adenosine receptor A3 [3] it was 7.69 nM; at Adenosine receptor A1 [5] it was 250 nM; on Adenosine receptor A2b, 3510 nM. Besides, the Efficacy (on Adenosine receptor A2a [1]; in assay [6]) was greater than 90% throughout. For the same compound, the Ki amounted to 3350 nM on Adenosine receptor A2a [2], 0.429 nM at Adenosine receptor A3 [4] and 8.59 nM on Adenosine receptor A1 [7]. Besides, the Ratio Ki in the assay filed under Homo sapiens [9] is 390; in the assay filed under Homo sapiens [10], 7800. Further, in [11], the Activity was 75%.

`OC[C@H]1O[C@@H](n2cnc3c(NC4CCCC4)nc(Cl)nc32)[C@H](O)[C@@H]1O`: the inhibition entry in assay [6] was “Active”.

Take `CCn1nnc([C@H]2O[C@@H](n3cnc4c(NC5CC5)nc(Cl)nc43)[C@H](O)[C@@H]2O)n1`: the EC50 at Adenosine receptor A2a [1] came to 5.31 nM; at Adenosine receptor A3 [3], 39.5 nM; at Adenosine receptor A1 [5] it was 3.62 nM; on Adenosine receptor A2b it was 1150 nM. The Efficacy (at Adenosine receptor A2a [1]; in [6]; in [8]) was greater than 90% throughout. Further, the Ki turned out to be 62.2 nM at Adenosine receptor A2a [2], 3.9 nM on Adenosine receptor A3 [4] and 0.311 nM on Adenosine receptor A1 [7].

Regarding `CCn1nnc([C@H]2O[C@@H](n3cnc4c(NC5CC5)ncnc43)[C@H](O)[C@@H]2O)n1`, the EC50 on Adenosine receptor A2a [1] was 9.75 nM; on Adenosine receptor A3 [3], 51.5 nM; at Adenosine receptor A1 [5], 8.61 nM; on Adenosine receptor A2b, 675 nM. The Efficacy (on Adenosine receptor A2a [1]; in assay [6]; in [8]) was greater than 90% throughout. In addition, the Ki is 93 nM at Adenosine receptor A2a [2], 7.97 nM at Adenosine receptor A3 [4] and 0.682 nM on Adenosine receptor A1 [7].

For `CCn1nnc([C@H]2O[C@@H](n3cnc4c(N[C@H]5C[C@@H]6CC[C@@H]5C6)nc(Cl)nc43)[C@H](O)[C@@H]2O)n1` (racemic), the EC50 is 12.8 nM at Adenosine receptor A2a [1], 721 nM on Adenosine receptor A3 [3], 10.2 nM on Adenosine receptor A1 [5] and greater than 30000 nM at Adenosine receptor A2b. Further, the Efficacy (at Adenosine receptor A2a [1]; in assay [6]; in assay [8]) was greater than 90% in each case. Further, the Ki on Adenosine receptor A2a [2] worked out at 164 nM; at Adenosine receptor A3 [4], 16.1 nM; at Adenosine receptor A1 [7], 0.728 nM.

Consider `CCn1nnc([C@H]2O[C@@H](n3cnc4c(NCc5ccccc5I)nc(Cl)nc43)[C@H](O)[C@@H]2O)n1`, for which the EC50 on Adenosine receptor A2a [1] was 9.04 nM; on Adenosine receptor A3 [3] it was 13.3 nM; on Adenosine receptor A1 [5], 64.9 nM; at Adenosine receptor A2b it was 834 nM. In addition, the Ki on Adenosine receptor A2a [2] is 108 nM; on Adenosine receptor A3 [4], 0.588 nM; on Adenosine receptor A1 [7] it was 2.39 nM. The Efficacy in assay [6] was greater than 90%; in assay [11], 76%.

As for `CCn1nnc([C@H]2O[C@@H](n3cnc4c(NC5CCCO5)ncnc43)[C@H](O)[C@@H]2O)n1` (stereo partly specified), the EC50 was 25.1 nM at Adenosine receptor A2a [1], 61.9 nM at Adenosine receptor A3 [3], 8.74 nM on Adenosine receptor A1 [5] and 1340 nM at Adenosine receptor A2b. The Efficacy (on Adenosine receptor A2a [1]; in assay [6]; in [8]) was greater than 90% in each case. For the same compound, the Ki at Adenosine receptor A2a [2] amounted to 554 nM; on Adenosine receptor A3 [4], 15.4 nM; on Adenosine receptor A1 [7] it was 1.23 nM.

Consider `CCn1nnc([C@H]2O[C@@H](n3cnc4c(N)ncnc43)[C@H](O)[C@@H]2O)n1`, for which the EC50 on Adenosine receptor A2a [1] was 2.36 nM; at Adenosine receptor A3 [3], 93.6 nM; at Adenosine receptor A1 [5], 26.3 nM; on Adenosine receptor A2b, 347 nM. The Efficacy (at Adenosine receptor A2a [1]; in assay [6]; in assay [8]) was greater than 90% throughout. Also, the results for the Ki on Adenosine receptor A2a [2], at Adenosine receptor A3 [4] and at Adenosine receptor A1 [7] were 8.12 nM, 3.86 nM and 0.919 nM, respectively.
